Data from patent US11999699B2, “Substituted pyrazole amides” (GRUENENTHAL GMBH, priority 2021, dated 2024).

Target: T1, human NaV1.8 (Homo sapiens, UniProt Q9Y5Y9)
T1 construct: The following NaV1.8 recombinant cell line was used for recordings: HEK-NaV1.8 (NM 006514.1); expressed in transfected cells; host or cells: HEK (recombinant cell line HEK-NaV1.8)
Assay: Electrophysiology: automated whole-cell voltage-clamp (patch clamp, Qube384) recordings of sodium currents in HEK-NaV1.8 cells
Type: cell-based
Settings: potency data either taken from inactivated or resting state, read-out: Potency category (human NaV1.8 IC50)
Outline: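 Automated whole-cell patch clamp at room temperature on HEK cells expressing human NaV1.8, with 0.3% DMSO vehicle controls. State-dependent protocol from −120 mV tested resting (P1) and half-inactivated (P2, 4 s at V1/2) channels, plus 40-pulse trains at 10 and 20 Hz. Values after ~12 min compound exposure were normalised to baseline and corrected for vehicle run-down; IC50 from a 4-parameter logistic fit, taken from inactivated or resting state.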

T1 sequence (Q9Y5Y9 whole entry): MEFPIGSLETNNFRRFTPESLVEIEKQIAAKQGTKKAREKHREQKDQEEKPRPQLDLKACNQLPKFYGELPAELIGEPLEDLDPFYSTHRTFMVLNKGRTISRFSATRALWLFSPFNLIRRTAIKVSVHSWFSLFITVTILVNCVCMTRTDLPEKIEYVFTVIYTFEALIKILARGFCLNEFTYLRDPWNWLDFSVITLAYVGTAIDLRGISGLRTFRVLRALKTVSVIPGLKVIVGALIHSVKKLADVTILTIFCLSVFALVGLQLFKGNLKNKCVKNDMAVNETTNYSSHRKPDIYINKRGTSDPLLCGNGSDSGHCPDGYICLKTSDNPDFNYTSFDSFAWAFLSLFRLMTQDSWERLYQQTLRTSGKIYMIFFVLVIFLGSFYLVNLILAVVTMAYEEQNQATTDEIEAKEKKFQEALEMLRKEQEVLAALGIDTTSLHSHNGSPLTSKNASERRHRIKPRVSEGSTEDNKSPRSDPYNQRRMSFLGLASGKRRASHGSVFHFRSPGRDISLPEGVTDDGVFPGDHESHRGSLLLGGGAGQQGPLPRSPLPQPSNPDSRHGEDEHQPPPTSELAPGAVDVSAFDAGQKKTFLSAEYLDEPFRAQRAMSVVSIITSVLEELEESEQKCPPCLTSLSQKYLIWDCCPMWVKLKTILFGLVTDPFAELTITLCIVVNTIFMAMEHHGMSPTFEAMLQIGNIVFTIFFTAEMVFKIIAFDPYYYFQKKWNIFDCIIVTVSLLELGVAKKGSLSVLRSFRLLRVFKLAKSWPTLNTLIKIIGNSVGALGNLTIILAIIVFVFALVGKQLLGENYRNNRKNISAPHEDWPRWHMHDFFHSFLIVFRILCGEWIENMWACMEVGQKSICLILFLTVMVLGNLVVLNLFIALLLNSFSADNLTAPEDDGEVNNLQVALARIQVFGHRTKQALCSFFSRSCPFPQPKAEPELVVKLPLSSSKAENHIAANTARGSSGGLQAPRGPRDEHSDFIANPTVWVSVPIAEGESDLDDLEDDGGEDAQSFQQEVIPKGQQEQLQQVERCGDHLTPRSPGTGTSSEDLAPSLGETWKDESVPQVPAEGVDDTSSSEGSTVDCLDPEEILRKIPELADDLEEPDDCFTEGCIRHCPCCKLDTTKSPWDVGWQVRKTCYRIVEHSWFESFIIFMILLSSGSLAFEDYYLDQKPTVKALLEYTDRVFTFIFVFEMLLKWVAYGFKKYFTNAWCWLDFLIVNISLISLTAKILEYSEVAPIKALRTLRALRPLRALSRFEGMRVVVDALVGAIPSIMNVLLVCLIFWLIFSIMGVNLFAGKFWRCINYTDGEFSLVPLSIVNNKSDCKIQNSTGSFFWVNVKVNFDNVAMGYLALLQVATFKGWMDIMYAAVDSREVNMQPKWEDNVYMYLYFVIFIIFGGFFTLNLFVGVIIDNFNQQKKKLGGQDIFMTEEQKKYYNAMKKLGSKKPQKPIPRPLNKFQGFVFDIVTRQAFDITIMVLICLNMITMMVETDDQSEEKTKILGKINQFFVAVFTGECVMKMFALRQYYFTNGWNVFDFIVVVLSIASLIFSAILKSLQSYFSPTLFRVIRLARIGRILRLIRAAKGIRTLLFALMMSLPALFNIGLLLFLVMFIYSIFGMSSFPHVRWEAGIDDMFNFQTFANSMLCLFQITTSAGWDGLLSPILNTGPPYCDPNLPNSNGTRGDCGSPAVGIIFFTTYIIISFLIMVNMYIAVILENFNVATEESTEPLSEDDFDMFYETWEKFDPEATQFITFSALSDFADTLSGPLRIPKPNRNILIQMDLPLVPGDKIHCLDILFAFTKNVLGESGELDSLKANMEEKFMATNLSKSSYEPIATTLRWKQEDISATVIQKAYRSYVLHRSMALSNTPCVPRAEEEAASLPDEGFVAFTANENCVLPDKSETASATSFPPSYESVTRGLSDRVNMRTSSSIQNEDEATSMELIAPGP
T1 sequence (Q9NY72 23-215 partner): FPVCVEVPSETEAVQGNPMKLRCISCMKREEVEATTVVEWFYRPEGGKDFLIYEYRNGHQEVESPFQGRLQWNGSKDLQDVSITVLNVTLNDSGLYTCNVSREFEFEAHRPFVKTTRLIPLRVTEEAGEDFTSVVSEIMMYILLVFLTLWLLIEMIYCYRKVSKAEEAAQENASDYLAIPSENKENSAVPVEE

IC50 [nM]	Compound
100 to 1000	Cc1nn(CC2CCC(F)(F)CC2)c(C(=O)Nc2cncc(S(C)(=O)=O)c2)c1C(F)(F)F [SC-241, 1-((4,4-difluorocyclohexyl)methyl)-3-methyl-N-(5-(methyisulfonyl)pyridin-3-yl)-4-(trifluoromethyl)-1H-pyrazole-5-carboxamide]
100 to 1000	CNC(=O)c1cc(NC(=O)c2c(C(F)(F)F)c(C)nn2CC2CCC(F)(F)CC2)ccn1 [SC-260, 4-(1-((4,4-difluorocyclohexyl)methyl)-3-methyl-4-(trifluoromethyl)-1H-pyrazole-5-carboxamido)-N-methyIpicolinamide]
≤ 100	Cc1c(C(F)(F)F)nn(CC2CCC(F)(F)C2)c1C(=O)Nc1ccnc(C(N)=O)c1 (single isomer, unassigned) [SC-118b]
1000 to 10000	Cc1cc(C(=O)Nc2cccc(S(C)(=O)=O)c2)n(CC2CCCCC2)n1 [SC-11, 2-(cyclohexylmethyl)-5-methyl-N-(3-methylsulfonylphenyl)pyrazole-3-carboxamide]
100 to 1000	Cc1c(C(F)(F)F)nn(CC2CCC(F)(F)CC2)c1C(=O)Nc1cccc(S(N)(=O)=O)n1 [SC-243, 1-((4,4-difluorocyclohexyl)methyl)-4-methyl-N-(6-sulfamoylpyridin-2-yl)-3-(trifluoromethyl)-1H-pyrazole-5-carboxamide]
≤ 100	NC(=O)c1cc(NC(=O)c2c(C(F)(F)F)cnn2CC2CCCCC2)ccc1F [SC-35, N-(3-carbamoyl-4-fluorophenyl)-1-(cyclohexylmethyl)-4-(trifluoromethyl)-1H-pyrazole-5-carboxamide]
≤ 100	Cc1c(C(C)(F)F)nn(CC2CC(F)(F)CC2C(F)(F)F)c1C(=O)Nc1ccnc(C(N)=O)c1 (racemic) [SC-217, 4-(1-((4,4-difluoro-2-(trifluoromethyl)cyclopentyl)methyl)-3-(1,1-difluoroethyl)-4-methyl-1H-pyrazole-5-carboxamido)picolinamide]
≤ 100	CS(=O)(=O)c1cc(NC(=O)c2c(C(F)(F)F)c(C3CC3)nn2CC2CC(F)(F)C2)ccn1 [SC-151, 3-cyclopropyl-1-((3,3-difluorocyclobutyl)methyl)-N-(2-(methylsulfonyl)pyridin-4-yl)-4-(trifluoromethyl)-1H-pyrazole-5-carboxamide]
≤ 100	Cc1c(C(C)(F)F)nn(CC2(C(F)(F)F)CC(F)(F)C2)c1C(=O)Nc1ccnc(S(C)(=O)=O)c1 [SC-220, 1-((3,3-difluoro-1-(trifluoromethyl)cyclobutyl)methyl)-3-(1,l-difluoroethyl)-4-methyl-N-(2-(methylsulfonyl)pyridin-4-yl)-1H-pyrazole-5-carboxamide]
100 to 1000	Cc1c([C@@H](C)C(F)(F)F)nn(CC2CC(F)(F)C2)c1C(=O)Nc1ccnc(C(N)=O)c1 [SC-188a]
≤ 100	CS(=O)(=O)c1cc(NC(=O)c2c(C(F)(F)F)c(C3CC3)nn2C[C@@H]2CCO[C@H]2C(F)(F)F)ccn1 (racemic) [SC-150c]
100 to 1000	Cc1c(C(C)(F)F)nn(CC2C[C@H]2C(F)F)c1C(=O)Nc1ccnc(S(C)(=O)=O)c1 (stereo in doubt) [SC-207, 3-(1,1-difluoroethyl)-1-((2-(difluoromethyl)cyclopropyl)methyl)-4-methyl-N-(2-(methylsulfonyl)pyridin-4-yl)-1H-pyrazole-5-carboxamide]
≤ 100	Cc1c(C(C)(F)F)nn(CC2(C)CC(F)(F)C2)c1C(=O)Nc1ccnc(S(N)(=O)=O)c1 [SC-209, 1-((3,3-difluoro-1-methylcyclobutyl)methyl)-3-(1,1-difluoroethyl)-4-methyl-N-(2-sulfamoylpyridin-4-yl)-1H-pyrazole-5-carboxamide]
≤ 100	Cc1c(C(C)(F)F)nn(CC2(C)CC(F)(F)C2)c1C(=O)Nc1ccnc(S(C)(=O)=O)c1 [SC-210, 1-((3,3-difluoro-1-methyleyclobutyl)methyl)-3-(1,1-difluoroethyl)-4-methyl-N-(2-(methylsulfonyl)pyridin-4-yl)-1H-pyrazole-5-carboxamide]
≤ 100	Cc1c(C(F)(F)F)nn(CC2CCC(F)(F)C2)c1C(=O)Nc1ccnc(S(N)(=O)=O)c1 (single isomer, unassigned) [SC-254a]
≤ 100	NC(=O)c1cc(NC(=O)c2c(C(F)(F)F)c(C3CC3)nn2CC2CC(F)(F)C2)ccn1 [SC-144, 4-(3-cyclopropyl-1-((3,3-difluorocyclobutyl)methyl)-4-(trifluoromethyl)-1H-pyrazole-5-carboxamido)picolinamide]
≤ 100	CS(=O)(=O)c1cc(NC(=O)c2c(C(F)F)c(C3CC3)nn2CC2CCOCC2)ccn1 [SC-153, 3-cyclopropyl-4-(difluoromethyl)-N-(2-(methylsulfonyl)pyridin-4-yl)-1-((tetrahydro-2H-pyran-4-yl)methyl)-1H-pyrazole-5-carboxamide]
≤ 100	COc1nn(CC2CCC(F)(F)C2)c(C(=O)Nc2cccc(S(N)(=O)=O)c2)c1C(F)(F)F (stereo not drawn) [SC-265, 1-((3,3-difluorocyclopentyl)methyl)-3-methoxy-N-(3-sulfamoyIphenyl)-4-(trifluoromethyl)-1H-pyrazole-5-carboxamide]

IC50 [nM]	Compound
100 to 1000	NS(=O)(=O)c1cccc(NC(=O)c2c(C(F)(F)F)cnn2CC2CCC(F)(F)CC2)c1 [SC-43, 2-[(4,4-difluorocyclohexyl)methyl]-N-(3-sulfamoylphenyl)-4-(trifluoromethyl)pyrazole-3-carboxamide]
≤ 100	NC(=O)c1cc(NC(=O)c2c(C(F)(F)F)c(C3CC3)nn2CC2CCC2(F)F)ccn1 (single isomer, unassigned) [SC-154b, 4-(3-cyclopropyl-1-((2,2-difluorocyclobutyl)methyl)-4-(trifluoromethyl)-1H-pyrazole-5-carboxamido)picolinamide]
≤ 100	NC(=O)c1cc(NC(=O)c2c(C(F)(F)F)c(C3CC3)nn2CC2CCCOC2)ccn1 (single isomer, unassigned) [SC-145a, 4-(3-Cyclopropyl-1-((tetrahydro-2H-pyran-3-yl)methyl)-4-(trifluoromethyl)-1H-pyrazole-5-carboxamido)picolinamide]
1000 to 10000	CC(C)c1cnn(CC2CCCCC2)c1C(=O)Nc1cccc(S(C)(=O)=O)c1 [SC-18, 2-(cyclohexylmethyl)-N-(3-methylsulfonylphenyl)-4-propan-2-ylpyrazole-3-carboxamide]
≤ 100	NC(=O)c1cc(NC(=O)c2c(C(F)(F)F)c(C3CC3)nn2C[C@@H]2CC[C@H](C(F)(F)F)O2)ccn1 (single isomer, unassigned) [SC-284b]
≤ 100	Cc1nn(CC2CCC(F)(F)CC2)c(C(=O)Nc2ccnc(C(N)=O)c2)c1C(F)(F)F [SC-84, 4-(1-((4,4-difluorocyclohexyl)methyl)-3-methyl-4-(trifluoromethyl)-1H-pyrazole-5-carboxamido)picolinamide]
≤ 100	CCOc1nn(CC2CCC(F)(F)C2)c(C(=O)Nc2ccnc(C(N)=O)c2)c1C(F)(F)F (stereo not drawn) [SC-156, 4-(1-((3,3-difluorocyclopentyl)methyl)-3-ethoxy-4-(trifluoromethyl)-1H-pyrazole-5-carboxamido)picolinamide]
≤ 100	CCc1nn(CC2CC(F)(F)C2)c(C(=O)Nc2ccnc(C(N)=O)c2)c1C(F)(F)F [SC-172, 4-(1-((3,3-difluorocyclobutyl)methyl)-3-ethyl-4-(trifluoromethyl)-1H-pyrazole-5-carboxamido)picolinamide]
≤ 100	NC(=O)c1cc(NC(=O)c2c(C(F)(F)F)c(C3CC3)nn2CC2CC(C(F)F)C2)ccn1 (single isomer, unassigned) [SC-221a, 4-(3-cyclopropyl-1-((3-(difluoromethyl)cyclobutyl)methyl)-4-(trifluoromethyl)-1H-pyrazole-5-carboxamido)picolinamide]
≤ 100	CS(=O)(=O)c1cc(NC(=O)c2c(C(F)(F)F)c(C3CC3)nn2CC2CCC(F)(F)CC2)ccn1 [SC-250, 3-cyclopropyl-1-((4,4-difluorocyclohexyl)methyl)-N-(2-(methylsulfonyl)pyridin-4-yl)-4-(trifluoromethyl)-1H-pyrazole-5-carboxamide]
≤ 100	CC1(Cn2ncc(C(F)(F)F)c2C(=O)Nc2cccc(S(C)(=O)=O)c2)CCCCC1 [SC-232, 1-((1-methylcyclohexyl)methyl)-N-(3-(methylsulfonyl)phenyl)-4-(trifluoromethyl)-1H-pyrazole-5-carboxamide]
100 to 1000	Cc1nn(CC2CCCCC2)c(C(=O)Nc2cccc(S(C)(=O)=O)c2)c1C [SC-06, 2-(cyclohexylmethyl)-4,5-dimethyl-N-(3-methylsulfonylphenyl)pyrazole-3-carboxamide]
100 to 1000	Cc1c(C(C)(F)F)nn(C[C@@]2(C)CCCCO2)c1C(=O)Nc1ccnc(S(N)(=O)=O)c1 (single isomer, unassigned) [SC-312b]
≤ 100	CS(=O)(=O)c1cc(NC(=O)c2c(C(F)(F)F)c(C3CC3)nn2C[C@@H]2CCO[C@@H]2C(F)(F)F)ccn1 (single isomer, unassigned) [SC-150a]
≤ 100	CC(F)(F)c1nn(CC2CCC(F)(F)C2)c(C(=O)Nc2ccnc(C(N)=O)c2)c1Cl (single isomer, unassigned) [SC-149b]
1000 to 10000	Cc1nn(CC2CCC(F)(F)CC2)c(C(=O)Nc2cccc(C(N)=O)n2)c1C(F)(F)F [SC-253, 6-(1-((4,4-difluorocyclohexyl)methyl)-3-methyl-4-(trifluoromethyl)-1H-pyrazole-5-carboxamido)picolinamide]
100 to 1000	CCc1nn(CC2CC(F)(F)C2)c(C(=O)Nc2ccnc(S(C)(=O)=O)c2)c1C [SC-302, 1-((3,3-difluorocyclobutyl)methyl)-3-ethyl-4-methyl-N-(2-(methylsulfonyl)pyridin-4-yl)-1H-pyrazole-5-carboxamide]
100 to 1000	CS(=O)(=O)c1cccc(NC(=O)c2cc(C3CC3)nn2CC2CCCCC2)c1 [SC-12, 2-(cyclohexylmethyl)-5-cyclopropyl-N-(3-methylsulfonylphenyl)pyrazole-3-carboxamide]
